This is an account of results in patent US20090304692A1, “TRIAZINE COMPOUNDS AS PI3 KINASE AND MTOR INHIBITORS” (Wyeth, priority 2008, published 2009).

Each structure is given as a SMILES string. Where “and” joins values, the source holds several entries; their conditions need not be identical. Equal entries are not always repeated. Where two headings read alike, the source gives them in different places.

For orientation: IC50 means the concentration at which inhibition is half-maximal.

In one test the target is PI3K-γ (Homo sapiens, UniProt P48736). The test is described as follows: PI3K-gamma fluorescence polarization assay. As to conditions: read-out: IC50 PI3Kγ. (In fluorescence polarisation assays a small probe gives low polarisation when free and higher when bound to something large.)
Chain of PI3K-γ (P48736 whole entry, species assumed): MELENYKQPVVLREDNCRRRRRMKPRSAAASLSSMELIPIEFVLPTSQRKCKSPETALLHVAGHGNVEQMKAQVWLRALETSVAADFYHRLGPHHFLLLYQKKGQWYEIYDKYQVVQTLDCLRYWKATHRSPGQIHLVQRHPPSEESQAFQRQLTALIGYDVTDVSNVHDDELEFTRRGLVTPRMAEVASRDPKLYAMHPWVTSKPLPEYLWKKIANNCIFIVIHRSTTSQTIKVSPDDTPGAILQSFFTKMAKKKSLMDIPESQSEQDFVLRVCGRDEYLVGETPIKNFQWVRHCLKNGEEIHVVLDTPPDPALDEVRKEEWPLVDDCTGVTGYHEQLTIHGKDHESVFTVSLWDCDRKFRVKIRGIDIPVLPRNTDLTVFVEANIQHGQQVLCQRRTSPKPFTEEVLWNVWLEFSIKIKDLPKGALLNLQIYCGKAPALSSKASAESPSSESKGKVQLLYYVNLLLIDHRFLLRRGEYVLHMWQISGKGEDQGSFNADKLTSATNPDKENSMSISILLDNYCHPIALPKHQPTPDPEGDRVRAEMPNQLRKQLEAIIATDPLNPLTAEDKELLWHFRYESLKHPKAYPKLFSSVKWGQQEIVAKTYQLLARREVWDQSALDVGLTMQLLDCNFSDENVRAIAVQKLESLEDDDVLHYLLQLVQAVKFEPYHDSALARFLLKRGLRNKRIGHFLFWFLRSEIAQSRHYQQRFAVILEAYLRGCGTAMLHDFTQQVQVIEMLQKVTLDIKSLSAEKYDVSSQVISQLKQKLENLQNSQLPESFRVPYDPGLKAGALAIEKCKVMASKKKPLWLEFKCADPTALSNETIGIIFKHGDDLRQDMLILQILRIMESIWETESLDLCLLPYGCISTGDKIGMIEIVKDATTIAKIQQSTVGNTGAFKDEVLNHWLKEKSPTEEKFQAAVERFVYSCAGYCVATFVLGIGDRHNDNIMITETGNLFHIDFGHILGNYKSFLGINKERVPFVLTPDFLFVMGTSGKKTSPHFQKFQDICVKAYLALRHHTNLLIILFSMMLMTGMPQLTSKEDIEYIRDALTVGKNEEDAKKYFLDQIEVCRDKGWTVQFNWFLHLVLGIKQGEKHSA
The next test concerns the target PI3K-α (Homo sapiens, UniProt P42336). Description: PI3K-alpha fluorescence polarization assay. As to conditions: read-out: IC50 PI3Kα.
The target in another test is Human mTOR (FLAG-TOR) (Homo sapiens, UniProt P42345). The test is described as follows: mTOR kinase assay (DELFIA format, purified enzyme). The format is biochemical. As to conditions: read-out: IC50 mTOR.
Chain of Human mTOR (FLAG-TOR) (P42345 1360-2549 limits assumed): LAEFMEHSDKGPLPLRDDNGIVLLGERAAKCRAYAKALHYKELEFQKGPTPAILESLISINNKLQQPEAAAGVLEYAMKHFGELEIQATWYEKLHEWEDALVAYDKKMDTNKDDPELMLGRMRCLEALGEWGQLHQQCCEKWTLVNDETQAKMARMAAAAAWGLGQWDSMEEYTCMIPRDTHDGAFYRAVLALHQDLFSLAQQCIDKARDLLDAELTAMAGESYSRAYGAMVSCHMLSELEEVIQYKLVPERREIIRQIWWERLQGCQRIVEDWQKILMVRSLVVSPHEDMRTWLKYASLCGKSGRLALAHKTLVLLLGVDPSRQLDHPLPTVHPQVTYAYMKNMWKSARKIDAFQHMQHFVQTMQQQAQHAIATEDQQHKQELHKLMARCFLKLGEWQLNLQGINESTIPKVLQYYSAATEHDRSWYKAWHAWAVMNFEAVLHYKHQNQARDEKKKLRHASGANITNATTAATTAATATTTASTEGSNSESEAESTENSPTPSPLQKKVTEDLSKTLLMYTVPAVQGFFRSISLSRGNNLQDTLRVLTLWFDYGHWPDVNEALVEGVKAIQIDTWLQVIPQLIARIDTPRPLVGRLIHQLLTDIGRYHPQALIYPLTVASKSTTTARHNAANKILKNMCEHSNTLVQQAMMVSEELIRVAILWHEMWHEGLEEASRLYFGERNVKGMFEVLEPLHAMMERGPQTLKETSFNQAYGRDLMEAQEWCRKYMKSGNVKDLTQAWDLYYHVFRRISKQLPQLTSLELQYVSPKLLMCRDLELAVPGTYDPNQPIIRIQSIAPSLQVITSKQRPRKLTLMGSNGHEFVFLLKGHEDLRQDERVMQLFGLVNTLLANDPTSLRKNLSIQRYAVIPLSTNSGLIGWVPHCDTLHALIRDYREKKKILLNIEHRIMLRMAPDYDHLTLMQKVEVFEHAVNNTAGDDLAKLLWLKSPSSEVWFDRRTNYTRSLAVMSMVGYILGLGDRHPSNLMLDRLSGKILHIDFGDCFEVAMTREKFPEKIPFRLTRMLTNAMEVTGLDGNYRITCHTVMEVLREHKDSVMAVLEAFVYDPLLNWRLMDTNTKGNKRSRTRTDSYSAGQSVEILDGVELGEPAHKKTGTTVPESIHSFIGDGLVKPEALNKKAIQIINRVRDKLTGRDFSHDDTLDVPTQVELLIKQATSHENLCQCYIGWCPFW
In test [1] the test system is human prostate LNCap tumor cell line. Description: In vitro cell culture growth assay (MTS), LNCap. As to conditions: read-out: IC50 LNCap.

Chain of PI3K-α (P42336 whole entry, species assumed): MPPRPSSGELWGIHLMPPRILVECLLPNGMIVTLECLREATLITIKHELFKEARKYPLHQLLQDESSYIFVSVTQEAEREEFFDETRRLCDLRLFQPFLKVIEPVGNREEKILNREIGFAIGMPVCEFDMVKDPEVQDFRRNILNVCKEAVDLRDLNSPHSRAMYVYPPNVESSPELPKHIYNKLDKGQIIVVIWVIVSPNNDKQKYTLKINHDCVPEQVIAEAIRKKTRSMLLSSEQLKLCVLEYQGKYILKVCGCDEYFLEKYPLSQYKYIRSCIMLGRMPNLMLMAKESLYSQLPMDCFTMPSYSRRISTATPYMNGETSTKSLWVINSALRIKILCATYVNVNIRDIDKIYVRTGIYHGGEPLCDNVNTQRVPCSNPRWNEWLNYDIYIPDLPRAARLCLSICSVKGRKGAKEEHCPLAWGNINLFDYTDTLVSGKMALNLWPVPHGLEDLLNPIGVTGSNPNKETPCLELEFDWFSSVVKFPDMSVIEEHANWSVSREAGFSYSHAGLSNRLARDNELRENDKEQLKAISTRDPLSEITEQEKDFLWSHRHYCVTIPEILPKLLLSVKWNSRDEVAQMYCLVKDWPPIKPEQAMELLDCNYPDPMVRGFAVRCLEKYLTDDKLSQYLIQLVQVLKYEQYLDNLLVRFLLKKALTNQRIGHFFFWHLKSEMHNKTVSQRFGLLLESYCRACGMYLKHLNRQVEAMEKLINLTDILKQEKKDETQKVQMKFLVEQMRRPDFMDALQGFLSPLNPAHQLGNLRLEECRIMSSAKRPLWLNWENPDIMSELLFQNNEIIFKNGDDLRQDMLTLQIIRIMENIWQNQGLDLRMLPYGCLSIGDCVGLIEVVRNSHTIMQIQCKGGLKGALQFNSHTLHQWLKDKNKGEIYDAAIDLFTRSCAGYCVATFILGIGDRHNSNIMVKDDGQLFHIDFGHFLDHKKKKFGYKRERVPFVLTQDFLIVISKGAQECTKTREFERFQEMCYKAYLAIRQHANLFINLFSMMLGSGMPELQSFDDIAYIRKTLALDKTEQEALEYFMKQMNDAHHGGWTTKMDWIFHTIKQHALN
Chain of PI3K-α (P27986 whole entry partner, species assumed): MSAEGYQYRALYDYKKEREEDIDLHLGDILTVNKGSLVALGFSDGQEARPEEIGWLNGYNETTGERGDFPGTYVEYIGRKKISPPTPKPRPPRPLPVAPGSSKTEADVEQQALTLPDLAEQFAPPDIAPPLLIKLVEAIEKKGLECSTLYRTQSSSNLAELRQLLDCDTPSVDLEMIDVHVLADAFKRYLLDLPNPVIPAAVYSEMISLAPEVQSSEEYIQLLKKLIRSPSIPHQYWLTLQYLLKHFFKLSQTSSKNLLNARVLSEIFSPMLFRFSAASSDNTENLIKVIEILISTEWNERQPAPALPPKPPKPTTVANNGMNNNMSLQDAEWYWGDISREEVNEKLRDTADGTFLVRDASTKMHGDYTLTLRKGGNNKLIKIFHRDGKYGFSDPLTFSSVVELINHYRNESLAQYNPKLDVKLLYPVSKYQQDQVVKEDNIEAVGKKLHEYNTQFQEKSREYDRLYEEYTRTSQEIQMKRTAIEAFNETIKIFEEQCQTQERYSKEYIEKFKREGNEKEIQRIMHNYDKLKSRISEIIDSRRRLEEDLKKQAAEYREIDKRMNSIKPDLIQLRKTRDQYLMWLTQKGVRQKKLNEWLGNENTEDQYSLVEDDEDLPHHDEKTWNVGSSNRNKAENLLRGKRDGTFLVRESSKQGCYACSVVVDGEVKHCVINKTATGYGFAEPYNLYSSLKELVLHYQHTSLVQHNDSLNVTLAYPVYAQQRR

For the compound `CC(C)Nc1nc(-c2ccc(NC(=O)Nc3ccc(CO)cc3)cc2)nc(N2CC3CCC(C2)O3)n1` [Example 221, 1-[4-(hydroxymethyl)phenyl]-3-(4-{4-[(1-methylethyl)amino]-6-(8-oxa-3-azabicyclo[3.2.1]oct-3-yl)-1,3,5-triazin-2-yl}phenyl)urea], the IC50 at PI3K-γ was 4.28 µM; on PI3K-α, 0.214 µM; on Human mTOR (FLAG-TOR), 0.0027 µM; in test [1] (Homo sapiens, LNCaP, 72 h) it was 0.12 µM.

For `CC(C)Nc1nc(-c2ccc(NC(=O)Nc3ccc(CCO)cc3)cc2)nc(N2CC3CCC(C2)O3)n1` [Example 222, 1-[4-(2-hydroxyethyl)phenyl]-3-(4-{4-[(1-methylethyl)amino]-6-(8-oxa-3-azabicyclo[3.2.1]oct-3-yl)-1,3,5-triazin-2-yl}phenyl)urea], the IC50 at PI3K-γ turned out to be 0.572 µM; at PI3K-α, 0.152 µM; at Human mTOR (FLAG-TOR) it was 0.0005 µM; in test [1] (Homo sapiens, LNCaP, 72 h), 0.01 µM.

Turning to `O=C(Nc1ccncc1)Nc1ccc(-c2nc(N3C4CCC3COC4)nc(N3C4CCC3COC4)n2)cc1` [Example 224, 1-[4-(4,6-di-3-oxa-8-azabicyclo[3.2.1]oct-8-yl-1,3,5-triazin-2-yl)phenyl]-3-pyridin-4-ylurea], the IC50 at PI3K-γ was 5.87 µM; at PI3K-γ (listed as 717) it was 5.87 µM; on PI3K-α, 0.444 µM; on Human mTOR (FLAG-TOR), 0.0004 µM and 0.000395 µM; in test [1] (Homo sapiens, LNCaP, 72 h) it was less than 0.0008 µM.

In the case of `COCCNc1nc(-c2ccc(NC(=O)Nc3cccnc3)cc2)nc(N2CC3CCC(C2)O3)n1` [Example 258, 1-(4-{4-[(2-methoxyethyl)amino]-6-(8-oxa-3-azabicyclo[3.2.1]oct-3-yl)-1,3,5-triazin-2-yl}phenyl)-3-pyridin-3-ylurea], the IC50 at PI3K-γ is 6.17 µM; on PI3K-α, 0.403 µM; on Human mTOR (FLAG-TOR), 0.0023 µM; in test [1] (Homo sapiens, LNCaP, 72 h), 0.06 µM.

As to `C[C@@H](CO)Nc1nc(-c2ccc(NC(=O)Nc3cccnc3)cc2)nc(N2CC3CCC(C2)O3)n1` [Example 259, 1-{4-[4-{[(1S)-2-hydroxy-1-methylethyl]amino}-6-(8-oxa-3-azabicyclo[3.2.1]oct-3-yl)-1,3,5-triazin-2-yl]phenyl}-3-pyridin-3-ylurea], the concentration for half-maximal inhibition (IC50) on PI3K-γ stood at 5.41 µM; at PI3K-α, 0.408 µM; at Human mTOR (FLAG-TOR), 0.0024 µM; in test [1] (Homo sapiens, LNCaP, 72 h) it was 0.58 µM.

Turning to `C[C@H](CO)Nc1nc(-c2ccc(NC(=O)Nc3cccnc3)cc2)nc(N2CC3CCC(C2)O3)n1` [Example 260, 1-{4-[4-{[(1R)-2-hydroxy-1-methylethyl]amino}-6-(8-oxa-3-azabicyclo[3.2.1]oct-3-yl)-1,3,5-triazin-2-yl]phenyl}-3-pyridin-3-ylurea], the half-maximal inhibitory concentration (IC50) at PI3K-γ is 4.73 µM; on PI3K-α, 0.417 µM; on Human mTOR (FLAG-TOR) it was 0.0009 µM; in test [1] (Homo sapiens, LNCaP, 72 h), 0.38 µM.

Turning to `CC(C)(CO)Nc1nc(-c2ccc(NC(=O)Nc3cccnc3)cc2)nc(N2CC3CCC(C2)O3)n1` [Example 261, 1-(4-{4-[(2-hydroxy-1,1-dimethylethyl)amino]-6-(8-oxa-3-azabicyclo[3.2.1]oct-3-yl)-1,3,5-triazin-2-yl}phenyl)-3-pyridin-3-ylurea], the IC50 at PI3K-γ came out at 2.53 µM; at PI3K-α, 0.158 µM; on Human mTOR (FLAG-TOR) it was 0.00031 µM; in test [1] (Homo sapiens, LNCaP, 72 h), 0.03 µM.

With `CC(C)(C)Nc1nc(-c2ccc(NC(=O)Nc3cccnc3)cc2)nc(N2CC3CCC(C2)O3)n1` [Example 262, 1-{4-[4-(tert-butylamino)-6-(8-oxa-3-azabicyclo[3.2.1]oct-3-yl)-1,3,5-triazin-2-yl]phenyl}-3-pyridin-3-ylurea], the IC50 on PI3K-γ came out at 0.954 µM; on PI3K-α, 0.105 µM; on Human mTOR (FLAG-TOR) it was 0.00029 µM; in test [1] (Homo sapiens, LNCaP, 72 h), 0.022 µM.

On to `O=C(Nc1ccc(-c2nc(N3C[C@@H]4C[C@H]3CO4)nc(N3C[C@@H]4C[C@H]3CO4)n2)cc1)Nc1ccc(N2CCNCC2)cc1` [Example 313, 1-{4-[4,6-di-(1S,4S)-2-oxa-5-azabicyclo[2.2.1]hept-5-yl-1,3,5-triazin-2-yl]phenyl}-3-(4-piperazin-1-ylphenyl)urea], for which the IC50 at PI3K-γ came to 7.49 µM; at PI3K-α, 1.73 µM; at Human mTOR (FLAG-TOR) it was 0.037 µM; in test [1] (MTS cell growth assay, three days after drug treatment), 0.1 µM.

With `CN1CCN(c2ccc(Nc3nc(-c4ccc(NC(=O)NCCF)cc4)nc(N4CC5CCC(C4)O5)n3)cc2)CC1` [Example 315, 1-(2-fluoroethyl)-3-{4-[4-{[4-(4-methylpiperazin-1-yl)phenyl]amino}-6-(8-oxa-3-azabicyclo[3.2.1]oct-3-yl)-1,3,5-triazin-2-yl]phenyl}urea], the IC50 was 7.9 µM at PI3K-γ; 1.1 µM at PI3K-α; 0.005 µM and 0.0058 µM on Human mTOR (FLAG-TOR); 0.3 µM in test [1] (Homo sapiens, LNCaP, 72 h).

On to `CN1CCN(c2ccc(Nc3nc(-c4ccc(NC(=O)NC5CC5)cc4)nc(N4CC5CCC(C4)O5)n3)cc2)CC1` [Example 316, 1-cyclopropyl-3-{4-[4-{[4-(4-methylpiperazin-1-yl)phenyl]amino}-6-(8-oxa-3-azabicyclo[3.2.1]oct-3-yl)-1,3,5-triazin-2-yl]phenyl}urea], for which the 50% inhibitory concentration (IC50) on PI3K-γ is 2.69 µM; at PI3K-α it was 1.41 µM; at Human mTOR (FLAG-TOR), 0.071 µM and 0.011 µM; in test [1] (Homo sapiens, LNCaP, 72 h) it was 0.32 µM.

On to `CN1CCN(c2ccc(Nc3nc(-c4ccc(NC(=O)Nc5ccccc5)cc4)nc(N4CC5CCC(C4)O5)n3)cc2)CC1` [Example 319, 1-{4-[4-{[4-(4-methylpiperazin-1-yl)phenyl]amino}-6-(8-oxa-3-azabicyclo[3.2.1]oct-3-yl)-1,3,5-triazin-2-yl]phenyl}-3-phenylurea], for which the 50% inhibitory concentration (IC50) is 1.45 µM at PI3K-γ; 0.144 µM at PI3K-γ (listed as 335); 0.08 µM at PI3K-α; 0.081 µM on PI3K-α (listed as 335); 0.0044 µM and 0.004 µM at Human mTOR (FLAG-TOR); 0.22 µM in test [1] (Homo sapiens, LNCaP, 72 h).

With `CNC(=O)Nc1ccc(-c2nc(Nc3ccc(N4CCNCC4)cc3)nc(N3CC4CCC(C3)O4)n2)cc1` [Example 325, 1-methyl-3-(4-{4-(8-oxa-3-azabicyclo[3.2.1]oct-3-yl)-6-[(4-piperazin-1-ylphenyl)amino]-1,3,5-triazin-2-yl}phenyl)urea], the IC50 was found to be 6.24 µM at PI3K-γ; 6.22 µM at PI3K-γ (listed as 354); 0.074 µM on PI3K-α; 0.069 µM at PI3K-α (listed as 354); 0.0046 µM at Human mTOR (FLAG-TOR); 0.31 µM in test [1] (Homo sapiens, LNCaP, 72 h).

As for `O=C(Nc1ccc(-c2nc(Nc3ccc(N4CCNCC4)cc3)nc(N3CC4CCC(C3)O4)n2)cc1)NC1CC1` [Example 326, 1-cyclopropyl-3-(4-{4-(8-oxa-3-azabicyclo[3.2.1]oct-3-yl)-6-[(4-piperazin-1-ylphenyl)amino]-1,3,5-triazin-2-yl}phenyl)urea], the IC50 on PI3K-γ was 6.19 µM; at PI3K-α, 0.83 µM; at Human mTOR (FLAG-TOR), 0.0122 µM and 0.012 µM; in test [1] (Homo sapiens, LNCaP, 72 h), 0.58 µM.

Take `O=C(NCCF)Nc1ccc(-c2nc(Nc3ccc(N4CCNCC4)cc3)nc(N3CC4CCC(C3)O4)n2)cc1` [Example 327, 1-(2-fluoroethyl)-3-(4-{4-(8-oxa-3-azabicyclo[3.2.1]oct-3-yl)-6-[(4-piperazin-1-ylphenyl)amino]-1,3,5-triazin-2-yl}phenyl)urea]: the half-inhibitory concentration (IC50) at PI3K-γ was determined as 5.9 µM; on PI3K-α it was 0.394 µM; at Human mTOR (FLAG-TOR), 0.0063 µM; in test [1] (Homo sapiens, LNCaP, 72 h), 0.4 µM.
